Source: US20260055365A1, “METHOD FOR SELECTIVE DIFFERENTIATION FROM PLURIPOTENT STEM CELLS TO HINDBRAIN TISSUE” (NEXT&BIO INC., priority 2022, published 2026)

Tested on: embryoid bodies formed from pluripotent stem cells
Experiment: Selective differentiation of embryoid bodies into hindbrain tissue (region-specific gene expression)
Format: cell-based
Conditions: cultured 7 days
Method: When the density of pluripotent stem cells reached approximately 80%, residues on the cell surface were washed using D-PBS and separated into each cell. Furthermore, the cells were diluted to contain approximately 100,000 cells per 10 ml of the embryoid body formation medium, and approximately 100 μl of the medium containing the cells was injected into each well of an Ultra-Low-attachment U bottom 96 well plate (Corning, 7007). Then, the cells were added in an incubator under a CO2 atmosphere at 37° C. and cultured for about 24 hours to form embryoid bodies. After the embryoid bodies were formed as described above, after about one day, it was confirmed whether one spherical embryoid body with a clean surface was formed well in each well. A hindbrain tissue induction medium containing IWP-2 as an endogenous WNT secretion inhibitor at a concentration of 1 μM and CHIR99021 as a WNT signaling agonist at concentrations of 1 μM, 2 μM, 3 μM, and 5 μM was prepared, and then about 100 μl of the hindbrain tissue induction medium was added to each well containing the embryoid body. About 100 μl of the existing medium was removed once every two days, about 100 μl of the hindbrain tissue induction medium was added, and the embryoid bodies were cultured for 7 days to confirm whether selective differentiation of the embryoid bodies into hindbrain tissue was performed well.

Q: Cc1c[nH]c(-c2cnc(NCCNc3ccc(C#N)cn3)nc2-c2ccc(Cl)cc2Cl)n1 [CHIR99021] was tested. Which “expression intensities of hindbrain region-specific genes versus other brain region-specific genes” value (hindbrain tissue induction medium with CHIR99021 2 μM to 3 μM plus IWP-2 1 μM) did it give?
A: Its value is “much stronger than those of other brain region-specific genes”.

Q: And the “expression of forebrain region-specific genes versus other brain regions” value (hindbrain tissue induction medium with CHIR99021 approximately 1 μM plus IWP-2 1 μM)?
A: The value was “stronger than that of other brain regions”.

Q: What about the “expression of spinal cord region-specific genes versus other brain regions” value (hindbrain tissue induction medium with CHIR99021 approximately 5 μM plus IWP-2 1 μM) of the same compound?
A: The value was “stronger than that of other brain regions”.

Q: And the “expression of hindbrain region-specific genes” value (hindbrain tissue induction medium with CHIR99021 more than 1 μM and less than 5 μM plus IWP-2 1 μM, FIGS. 2 to 4)?
A: Its value is “strongly induced”.
